# Measured values as given in patent publication US9717748B2, “Compositions and methods for treating an infection” (CMPD LICENSING, LLC, priority 2015, dated 2017).
# Experiments:
# Cryptococcus neoformans = experiment: Expected efficacy of antifungal agents
# Aspergillus flavus = experiment: Expected efficacy of antifungal agents
# Aspergillus fumigatus = experiment: Expected efficacy of antifungal agents
# Shigella sonnei = experiment: Expected efficacy of antibiotic agents; conditions: Gram: neg
# Campylobacter jejuni = experiment: Expected efficacy of antibiotic agents; conditions: Gram: neg
# Legionella pneumophila = conditions: Gram: neg
# Providencia rettgeri = experiment: Expected efficacy of antibiotic agents; conditions: Gram: neg
# Francisella tularensis = conditions: Gram: neg
# Corynebacterium jeikeium = experiment: Expected efficacy of antibiotic agents; conditions: Gram: pos
# Yersinia pestis = conditions: Gram: neg
# [1] = system: Staphylococcus epidermidis; experiment: Expected efficacy of antibiotic agents; conditions: Gram: pos
# Klebsiella pneumoniae = experiment: Expected efficacy of antibiotic agents; conditions: Gram: neg
# Proteus mirabilis = experiment: Expected efficacy of antibiotic agents; conditions: Gram: neg
# Shigella flexneri = experiment: Expected efficacy of antibiotic agents; conditions: Gram: neg
# [2] = system: Haemophilus parainfluenzae; experiment: Expected efficacy of antibiotic agents; conditions: Gram: neg
# Pseudomonas aeruginosa = experiment: Expected efficacy of antibiotic agents; conditions: Gram: neg
# Enterococcus faecium = experiment: Expected efficacy of antibiotic agents; conditions: Gram: pos
# Neisseria gonorrhoeae = experiment: Expected efficacy of antibiotic agents; conditions: Gram: neg
# Chlamydia pneumoniae = experiment: Expected efficacy of antibiotic agents; conditions: Gram: n/a
# Bacteroides fragilis = experiment: Expected efficacy of antibiotic agents; conditions: Gram: anaer
# Providencia stuartii = experiment: Expected efficacy of antibiotic agents; conditions: Gram: neg
# Citrobacter freundii = experiment: Expected efficacy of antibiotic agents; conditions: Gram: neg
# Salmonella typhi = experiment: Expected efficacy of antibiotic agents; conditions: Gram: neg
# [3] = system: Methicillin resistant staphaureus (MRSA); experiment: Expected efficacy of antibiotic agents; conditions: Gram: pos
# Shigella dysenteriae = experiment: Expected efficacy of antibiotic agents; conditions: Gram: neg
# [4] = system: Staphylococcus aureus (MSSA); experiment: Expected efficacy of antibiotic agents; conditions: Gram: pos
# Moraxella catarrhalis = experiment: Expected efficacy of antibiotic agents; conditions: Gram: neg
# Enterobacter aerogenes = experiment: Expected efficacy of antibiotic agents; conditions: Gram: neg
# Serratia marcescens = experiment: Expected efficacy of antibiotic agents; conditions: Gram: neg
# Enterobacter cloacae = experiment: Expected efficacy of antibiotic agents; conditions: Gram: neg
# Chlamydia psittaci = conditions: Gram: n/a
# Streptococcus agalactiae = experiment: Expected efficacy of antibiotic agents; conditions: Gram: pos
# Proteus vulgaris = experiment: Expected efficacy of antibiotic agents; conditions: Gram: neg
# Clostridium perfringens = conditions: Gram: anaer
# Chlamydia trachomatis = experiment: Expected efficacy of antibiotic agents; conditions: Gram: n/a
# [5] = system: Klebsiella (Calymmato-bacterium) granulomatis; experiment: Expected efficacy of antibiotic agents; conditions: Gram: neg
# Enterobacter sakazakii = experiment: Expected efficacy of antibiotic agents; conditions: Gram: neg
# Pseudomonas fluorescens = experiment: Expected efficacy of antibiotic agents; conditions: Gram: neg
# Mycoplasma pneumoniae = experiment: Expected efficacy of antibiotic agents; conditions: Gram: n/a
# Klebsiella oxytoca = experiment: Expected efficacy of antibiotic agents; conditions: Gram: neg
# Clostridium difficile = experiment: Expected efficacy of antibiotic agents; conditions: Gram: anaer
# Citrobacter diversus = experiment: Expected efficacy of antibiotic agents; conditions: Gram: neg
# Acinetobacter lwoffii = experiment: Expected efficacy of antibiotic agents; conditions: Gram: neg
# Enterococcus faecalis = experiment: Expected efficacy of antibiotic agents; conditions: Gram: pos
# Streptococcus pyogenes = experiment: Expected efficacy of antibiotic agents; conditions: Gram: pos
# [6] = system: Acinetobacter calcoaceticus; experiment: Expected efficacy of antibiotic agents; conditions: Gram: neg
# Morganella morganii = experiment: Expected efficacy of antibiotic agents; conditions: Gram: neg
# Brucella species = conditions: Gram: neg
# Escherichia coli = experiment: Expected efficacy of antibiotic agents; conditions: Gram: neg
# Acinetobacter baumannii = experiment: Expected efficacy of antibiotic agents; conditions: Gram: neg
# Haemophilus ducreyi = experiment: Expected efficacy of antibiotic agents; conditions: Gram: neg
# [7] = system: Viridans group streptococci; experiment: Expected efficacy of antibiotic agents; conditions: Gram: pos
# Diphtheroids = experiment: Expected efficacy of antibiotic agents; conditions: Gram: pos
# Vibrio cholerae = experiment: Expected efficacy of antibiotic agents; conditions: Gram: neg
# Bordetella pertussis = experiment: Expected efficacy of antibiotic agents; conditions: Gram: neg
# [8] = system: Corynebacterium urealyticum; experiment: Expected efficacy of antibiotic agents; conditions: Gram: pos
# Rickettsiae = conditions: Gram: neg
# Peptostreptococcus = experiment: Expected efficacy of antibiotic agents; conditions: Gram: pos
compound,measurement,setting,value
OC(Cn1cncn1)(Cn1cncn1)c1ccc(F)cc1F [Fluconazole],Expected efficacy against Coccidioides immitis,Coccidioides immitis,yes
same,Expected efficacy against Cryptococcus neoformans,Cryptococcus neoformans,yes
same,Expected efficacy against Aspergillus flavus,Aspergillus flavus,yes
same,Expected efficacy against Aspergillus fumigatus,Aspergillus fumigatus,yes
O=C(O)c1cn(C2CC2)c2cc(N3CCNCC3)c(F)cc2c1=O [Ciprofloxacin],Expected efficacy against Shigella sonnei,Shigella sonnei,yes
same,Expected efficacy against Campylobacter jejuni,Campylobacter jejuni,yes
same,Expected efficacy against Legionella pneumophila,Legionella pneumophila,yes
same,Expected efficacy against Providencia rettgeri,Providencia rettgeri,yes
same,Expected efficacy against Francisella tularensis,Francisella tularensis,yes
same,Expected efficacy against Corynebacterium jeikeium,Corynebacterium jeikeium,no
same,Expected efficacy against Yersinia pestis,Yersinia pestis,yes
same,Expected efficacy against Staphylococcus epidermidis,[1],yes
same,Expected efficacy against Klebsiella pneumoniae,Klebsiella pneumoniae,yes
same,Expected efficacy against Proteus mirabilis,Proteus mirabilis,yes
same,Expected efficacy against Shigella flexneri,Shigella flexneri,yes
same,Expected efficacy against Haemophilus parainfluenzae,[2],yes
same,Expected efficacy against Pseudomonas aeruginosa,Pseudomonas aeruginosa,yes
same,Expected efficacy against Enterococcus faecium,Enterococcus faecium,no
same,Expected efficacy against Neisseria gonorrhoeae,Neisseria gonorrhoeae,yes
same,Expected efficacy against Chlamydia pneumoniae,Chlamydia pneumoniae,yes
same,Expected efficacy against Bacteroides fragilis,Bacteroides fragilis,no
same,Expected efficacy against Providencia stuartii,Providencia stuartii,yes
same,Expected efficacy against Citrobacter freundii,Citrobacter freundii,yes
same,Expected efficacy against Salmonella typhi,Salmonella typhi,yes
same,Expected efficacy against Methicillin resistant staphaureus (MRSA),[3],no
same,Expected efficacy against Shigella dysenteriae,Shigella dysenteriae,yes
same,Expected efficacy against Staphylococcus aureus (MSSA),[4],no
same,Expected efficacy against Moraxella catarrhalis,Moraxella catarrhalis,yes
Azithromycin,Expected efficacy against Campylobacter jejuni,Campylobacter jejuni,yes
same,Expected efficacy against Enterobacter aerogenes,Enterobacter aerogenes,no
same,Expected efficacy against Serratia marcescens,Serratia marcescens,no
same,Expected efficacy against Legionella pneumophila,Legionella pneumophila,yes
same,Expected efficacy against Providencia rettgeri,Providencia rettgeri,no
same,Expected efficacy against Enterobacter cloacae,Enterobacter cloacae,no
same,Expected efficacy against Francisella tularensis,Francisella tularensis,no
same,Expected efficacy against Corynebacterium jeikeium,Corynebacterium jeikeium,no
same,Expected efficacy against Staphylococcus epidermidis,[1],yes
same,Expected efficacy against Klebsiella pneumoniae,Klebsiella pneumoniae,no
same,Expected efficacy against Proteus mirabilis,Proteus mirabilis,no
same,Expected efficacy against Chlamydia psittaci,Chlamydia psittaci,yes
same,Expected efficacy against Streptococcus agalactiae,Streptococcus agalactiae,yes
same,Expected efficacy against Proteus vulgaris,Proteus vulgaris,no
same,Expected efficacy against Clostridium perfringens,Clostridium perfringens,no
same,Expected efficacy against Chlamydia trachomatis,Chlamydia trachomatis,yes
same,Expected efficacy against Pseudomonas aeruginosa,Pseudomonas aeruginosa,no
same,Expected efficacy against Klebsiella (Calymmato-bacterium) granulomatis,[5],no
same,Expected efficacy against Enterobacter sakazakii,Enterobacter sakazakii,no
same,Expected efficacy against Pseudomonas fluorescens,Pseudomonas fluorescens,no
same,Expected efficacy against Mycoplasma pneumoniae,Mycoplasma pneumoniae,yes
same,Expected efficacy against Klebsiella oxytoca,Klebsiella oxytoca,no
same,Expected efficacy against Enterococcus faecium,Enterococcus faecium,no
same,Expected efficacy against Clostridium difficile,Clostridium difficile,no
same,Expected efficacy against Chlamydia pneumoniae,Chlamydia pneumoniae,yes
same,Expected efficacy against Bacteroides fragilis,Bacteroides fragilis,no
same,Expected efficacy against Providencia stuartii,Providencia stuartii,no
same,Expected efficacy against Citrobacter diversus,Citrobacter diversus,no
same,Expected efficacy against Citrobacter freundii,Citrobacter freundii,no
same,Expected efficacy against Acinetobacter lwoffii,Acinetobacter lwoffii,no
same,Expected efficacy against Enterococcus faecalis,Enterococcus faecalis,no
same,Expected efficacy against Streptococcus pyogenes,Streptococcus pyogenes,yes
same,Expected efficacy against Acinetobacter calcoaceticus,[6],no
same,Expected efficacy against Morganella morganii,Morganella morganii,no
same,Expected efficacy against Brucella species,Brucella species,no
same,Expected efficacy against Escherichia coli,Escherichia coli,no
same,Expected efficacy against Methicillin resistant staphaureus (MRSA),[3],no
same,Expected efficacy against Acinetobacter baumannii,Acinetobacter baumannii,no
same,Expected efficacy against Staphylococcus aureus (MSSA),[4],yes
same,Expected efficacy against Moraxella catarrhalis,Moraxella catarrhalis,yes
CO/N=C(\C(=O)N[C@@H]1C(=O)N2C(C(=O)O)=C(CSc3nc(=O)c(=O)[nH]n3C)CS[C@H]12)c1csc(N)n1 [Ceftriaxone],Expected efficacy against Shigella sonnei,Shigella sonnei,yes
same,Expected efficacy against Campylobacter jejuni,Campylobacter jejuni,no
same,Expected efficacy against Haemophilus ducreyi,Haemophilus ducreyi,yes
same,Expected efficacy against Legionella pneumophila,Legionella pneumophila,no
same,Expected efficacy against Providencia rettgeri,Providencia rettgeri,yes
same,Expected efficacy against Enterobacter cloacae,Enterobacter cloacae,yes
same,Expected efficacy against Francisella tularensis,Francisella tularensis,no
same,Expected efficacy against Corynebacterium jeikeium,Corynebacterium jeikeium,no
same,Expected efficacy against Yersinia pestis,Yersinia pestis,no
same,Expected efficacy against Viridans group streptococci,[7],yes
same,Expected efficacy against Staphylococcus epidermidis,[1],yes
same,Expected efficacy against Klebsiella pneumoniae,Klebsiella pneumoniae,yes
same,Expected efficacy against Proteus mirabilis,Proteus mirabilis,yes
same,Expected efficacy against Diphtheroids,Diphtheroids,no
same,Expected efficacy against Vibrio cholerae,Vibrio cholerae,no
same,Expected efficacy against Chlamydia psittaci,Chlamydia psittaci,no
same,Expected efficacy against Streptococcus agalactiae,Streptococcus agalactiae,yes
same,Expected efficacy against Shigella flexneri,Shigella flexneri,yes
same,Expected efficacy against Haemophilus parainfluenzae,[2],yes
same,Expected efficacy against Chlamydia trachomatis,Chlamydia trachomatis,no
same,Expected efficacy against Pseudomonas aeruginosa,Pseudomonas aeruginosa,no
same,Expected efficacy against Klebsiella (Calymmato-bacterium) granulomatis,[5],yes
same,Expected efficacy against Enterobacter sakazakii,Enterobacter sakazakii,yes
same,Expected efficacy against Mycoplasma pneumoniae,Mycoplasma pneumoniae,no
same,Expected efficacy against Bordetella pertussis,Bordetella pertussis,no
same,Expected efficacy against Corynebacterium urealyticum,[8],no
same,Expected efficacy against Enterococcus faecium,Enterococcus faecium,no
same,Expected efficacy against Clostridium difficile,Clostridium difficile,no
same,Expected efficacy against Neisseria gonorrhoeae,Neisseria gonorrhoeae,yes
same,Expected efficacy against Chlamydia pneumoniae,Chlamydia pneumoniae,no
same,Expected efficacy against Bacteroides fragilis,Bacteroides fragilis,yes
same,Expected efficacy against Providencia stuartii,Providencia stuartii,yes
same,Expected efficacy against Rickettsiae,Rickettsiae,no
same,Expected efficacy against Citrobacter freundii,Citrobacter freundii,yes
same,Expected efficacy against Acinetobacter lwoffii,Acinetobacter lwoffii,no
same,Expected efficacy against Salmonella typhi,Salmonella typhi,yes
same,Expected efficacy against Enterococcus faecalis,Enterococcus faecalis,no
same,Expected efficacy against Streptococcus pyogenes,Streptococcus pyogenes,yes
same,Expected efficacy against Acinetobacter calcoaceticus,[6],no
same,Expected efficacy against Methicillin resistant staphaureus (MRSA),[3],no
same,Expected efficacy against Peptostreptococcus,Peptostreptococcus,yes
same,Expected efficacy against Shigella dysenteriae,Shigella dysenteriae,yes
same,Expected efficacy against Acinetobacter baumannii,Acinetobacter baumannii,no
same,Expected efficacy against Staphylococcus aureus (MSSA),[4],yes
same,Expected efficacy against Moraxella catarrhalis,Moraxella catarrhalis,yes
C[C@H]1c2cccc(O)c2C(=O)C2=C(O)[C@]3(O)C(=O)C(C(N)=O)=C(O)[C@@H](N(C)C)[C@@H]3[C@@H](O)[C@@H]21 [Doxycyline],Expected efficacy against Campylobacter jejuni,Campylobacter jejuni,yes
same,Expected efficacy against Haemophilus ducreyi,Haemophilus ducreyi,yes
same,Expected efficacy against Serratia marcescens,Serratia marcescens,no
same,Expected efficacy against Legionella pneumophila,Legionella pneumophila,yes
same,Expected efficacy against Providencia rettgeri,Providencia rettgeri,no
same,Expected efficacy against Francisella tularensis,Francisella tularensis,yes
same,Expected efficacy against Yersinia pestis,Yersinia pestis,yes
same,Expected efficacy against Staphylococcus epidermidis,[1],yes
same,Expected efficacy against Proteus mirabilis,Proteus mirabilis,no
same,Expected efficacy against Chlamydia psittaci,Chlamydia psittaci,yes
same,Expected efficacy against Proteus vulgaris,Proteus vulgaris,no
same,Expected efficacy against Haemophilus parainfluenzae,[2],yes
same,Expected efficacy against Chlamydia trachomatis,Chlamydia trachomatis,yes
same,Expected efficacy against Pseudomonas aeruginosa,Pseudomonas aeruginosa,no
same,Expected efficacy against Klebsiella (Calymmato-bacterium) granulomatis,[5],yes
same,Expected efficacy against Enterococcus faecium,Enterococcus faecium,no
same,Expected efficacy against Chlamydia pneumoniae,Chlamydia pneumoniae,yes
same,Expected efficacy against Providencia stuartii,Providencia stuartii,no
same,Expected efficacy against Citrobacter diversus,Citrobacter diversus,no
same,Expected efficacy against Citrobacter freundii,Citrobacter freundii,no
same,Expected efficacy against Acinetobacter lwoffii,Acinetobacter lwoffii,no
same,Expected efficacy against Enterococcus faecalis,Enterococcus faecalis,no
same,Expected efficacy against Morganella morganii,Morganella morganii,no
same,Expected efficacy against Brucella species,Brucella species,yes
same,Expected efficacy against Acinetobacter baumannii,Acinetobacter baumannii,no
same,Expected efficacy against Moraxella catarrhalis,Moraxella catarrhalis,yes
